Experimental data as given in the NIST ThermoML archive (doi:10.1016/j.jct.2011.02.002).

Test: molar heat capacity at constant pressure
Details: 101.33 kPa, Crystal, Thermal relaxation technique

[Hf+4].[O-2].[O-2] [hafnium(IV) oxide]
Details	molar heat capacity at constant pressure [J/K/mol]
1.92 K	0.0006
2 K	0.00065
2.04 K	0.0007
2.19 K	0.0009
2.48 K	0.0011
2.8 K	0.0015
3.09 K	0.002
3.4 K	0.0027
3.77 K	0.0037
4.17 K	0.0048
4.63 K	0.0065
5 K	0.00802
5.17 K	0.0091
5.74 K	0.0118
6.4 K	0.0162
7.11 K	0.022
7.9 K	0.0304
8.79 K	0.0411
9.77 K	0.0569
10 K	0.061
10.87 K	0.0795
12.08 K	0.1132
13.43 K	0.1598
14.85 K	0.2256
16.63 K	0.3276
18.43 K	0.4834
20 K	0.63
20.37 K	0.6725
22.69 K	0.967
25.26 K	1.369
28.1 K	1.905
30 K	2.3
31.26 K	2.569
34.79 K	3.429
38.68 K	4.469
40 K	4.82
43 K	5.684
47.81 K	7.049
50 K	7.72
53.14 K	8.65
59.07 K	10.45
65.65 K	12.39
72.95 K	14.5
81.06 K	16.95
90.05 K	19.69
100 K	22.26
100.01 K	22.35
110.26 K	25.03
120.29 K	27.43
130.3 K	29.98
140.32 K	32.44
150 K	34.61
150.53 K	34.59
160.66 K	36.82
170.61 K	38.83
180.78 K	40.81
190.96 K	42.62
200 K	44.22
201.26 K	44.45
211.45 K	46.16
221.7 K	48.01
231.89 K	49.47
242.02 K	50.89
250 K	51.9
252.09 K	52.39
262.17 K	53.45
272.31 K	54.56
273.15 K	54.95
282.4 K	55.7
292.46 K	56.89
298.15 K	57.73
302.51 K	58.63
